Among the test systems are CAKI-1 renal; HOP-62 NSCLC; NCI-H23 lung; OVCAR-5 ovarian; SF-295 CNS; SK-MEL-28 melanoma; SK-OV-3 ovarian; SN12C renal; SNB-19 CNS; SR leukemia.
Holding throughout (assay): NCI tumour cell line growth inhibition, 48 h

Structures are written as SMILES.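 Where inhibition never reached the appropriate level, the endpoint shown equals the highest concentration tested. Otherwise, values were interpolated linearly from a five-concentration, 48-hour dose response in 96-well plates. Here, GI50 denotes the concentration required for 50% inhibition of growth. Definition used: TGI = concentration required for complete inhibition of growth.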

Consider `CC(C)(C)c1cc2c(OP(c3ccccc3)c3ccccc3)c(c1)Cc1cc(C(C)(C)C)cc(c1OP(c1ccccc1)c1ccccc1)Cc1cc(C(C)(C)C)cc(c1OP(c1ccccc1)c1ccccc1)Cc1cc(C(C)(C)C)cc(c1OP(c1ccccc1)c1ccccc1)C2`, for which the TGI is over 5 µM with CAKI-1 renal; over 50 µM with HOP-62 NSCLC; over 50 µM in the experiment on NCI-H23 lung; over 50 µM in the experiment on OVCAR-5 ovarian; over 50 µM in the experiment on SF-295 CNS; over 50 µM in the experiment on SK-MEL-28 melanoma. Besides, the TGI with SK-OV-3 ovarian was over 50 µM; with SN12C renal, over 50 µM; in the experiment on SNB-19 CNS, over 50 µM; with SR leukemia, over 5 µM. Also, the GI50 in the experiment with HOP-62 NSCLC, with NCI-H23 lung, in the experiment with OVCAR-5 ovarian, with SF-295 CNS, with SK-MEL-28 melanoma and with SK-OV-3 ovarian was over 50 µM in each case. Besides, the GI50 in the experiment on SN12C renal and in the experiment on SNB-19 CNS was over 50 µM in each case.

As to `COc1cc(C)c(N(C)C(=O)CN(C)C)cc1Nc1nc(Nc2cccc(F)c2C(N)=O)c2cc[nH]c2n1`, the GI50 in the experiment with CAKI-1 renal was over 23.9 µM; in the experiment on HOP-62 NSCLC, over 25 µM; in the experiment on NCI-H23 lung, over 25 µM; in the experiment with OVCAR-5 ovarian, 1.41 µM; in the experiment with SF-295 CNS, over 25 µM; with SK-MEL-28 melanoma, over 25 µM. Moreover, the GI50 in the experiment with SK-OV-3 ovarian was over 25 µM; in the experiment on SN12C renal, over 25 µM; in the experiment on SNB-19 CNS it was over 25 µM; in the experiment with SR leukemia it was 7.85 µM. Moreover, the TGI in the experiment with CAKI-1 renal, with HOP-62 NSCLC, in the experiment with NCI-H23 lung, in the experiment with OVCAR-5 ovarian, in the experiment on SF-295 CNS and with SK-MEL-28 melanoma was over 25 µM each time. Moreover, the TGI was over 25 µM with SK-OV-3 ovarian, over 25 µM in the experiment on SN12C renal, over 25 µM in the experiment with SNB-19 CNS and over 23.3 µM with SR leukemia.

`COc1cccc2c1C(=O)c1c(O)c3c(c(O)c1C2=O)C[C@@](O)(C(=O)COC(=O)c1cccnc1)C[C@@H]3OC1CC(N)C(O)C(C)O1` (some centres not stated): the GI50 was 0.705 µM in the experiment with CAKI-1 renal; 0.124 µM in the experiment on HOP-62 NSCLC; 0.178 µM in the experiment with NCI-H23 lung; 0.335 µM in the experiment on OVCAR-5 ovarian; 0.148 µM with SF-295 CNS; 0.203 µM in the experiment on SK-MEL-28 melanoma. Further, the GI50 is 0.382 µM with SK-OV-3 ovarian, 0.083 µM with SN12C renal, 0.0691 µM in the experiment with SNB-19 CNS and 0.0173 µM in the experiment on SR leukemia. Besides, the TGI is 6.25 µM in the experiment on CAKI-1 renal; 1.28 µM with HOP-62 NSCLC; 1.02 µM in the experiment on NCI-H23 lung; 4.53 µM in the experiment with OVCAR-5 ovarian; 2.29 µM in the experiment on SF-295 CNS; 0.689 µM with SK-MEL-28 melanoma. Also, the TGI in the experiment with SK-OV-3 ovarian came to 26 µM; in the experiment with SN12C renal it was 3.68 µM; in the experiment on SNB-19 CNS, 2.65 µM; in the experiment with SR leukemia, 2.4 µM.

Regarding `COc1cc([N+](=O)[O-])c(S(=O)(=O)O)cc1-n1nc(-c2ccccc2)n[n+]1-c1cc(S(=O)(=O)[O-])c([N+](=O)[O-])cc1OC`, the TGI in the experiment with CAKI-1 renal, in the experiment on HOP-62 NSCLC, in the experiment on NCI-H23 lung, in the experiment with OVCAR-5 ovarian, with SF-295 CNS and with SK-MEL-28 melanoma was over 100 µM in each case. Further, the TGI with SK-OV-3 ovarian, in the experiment with SN12C renal, with SNB-19 CNS and in the experiment on SR leukemia was over 100 µM in each case.

In the case of `CCCCC/C=C1\CCC(CN2CCOCC2)C1=O` (configuration not stated), the TGI in the experiment on CAKI-1 renal is 9.79 µM; in the experiment on HOP-62 NSCLC, 54.5 µM; with NCI-H23 lung, 29.8 µM; with OVCAR-5 ovarian it was 35.9 µM; with SF-295 CNS, 32.3 µM; with SK-MEL-28 melanoma, 21.2 µM. The TGI with SK-OV-3 ovarian turned out to be 35.3 µM; with SN12C renal, 37.6 µM; in the experiment on SNB-19 CNS, 32.4 µM; with SR leukemia, 12.1 µM.

For `COc1ccccc1NC(=O)N/C(N)=N/c1nc2ccccc2s1`, the GI50 was 0.062 µM with CAKI-1 renal; 0.111 µM in the experiment with HOP-62 NSCLC; 0.15 µM with NCI-H23 lung; 0.42 µM with OVCAR-5 ovarian; 0.0418 µM with SF-295 CNS; 30.7 µM with SK-MEL-28 melanoma. Also, the GI50 was 0.476 µM in the experiment on SK-OV-3 ovarian, 0.307 µM with SN12C renal, 0.0607 µM in the experiment on SNB-19 CNS and 0.0228 µM in the experiment on SR leukemia. The TGI in the experiment on CAKI-1 renal, in the experiment with HOP-62 NSCLC, in the experiment on NCI-H23 lung, with OVCAR-5 ovarian, with SK-MEL-28 melanoma and in the experiment on SK-OV-3 ovarian was over 100 µM in each case. Moreover, the TGI in the experiment with SN12C renal, in the experiment with SNB-19 CNS and with SR leukemia was over 100 µM throughout.

As for `CC(C)(C)c1ccc(NC(=O)c2cc(=O)c3ccccc3[nH]2)c(C(C)(C)C)c1O`, the GI50 in the experiment with CAKI-1 renal was 5.74 µM; with HOP-62 NSCLC it was 12.5 µM; in the experiment with NCI-H23 lung, 3.33 µM; in the experiment on OVCAR-5 ovarian, 6.26 µM; with SF-295 CNS, 6.25 µM; in the experiment on SK-MEL-28 melanoma it was 12.8 µM. The GI50 in the experiment on SK-OV-3 ovarian is 13.8 µM; with SN12C renal, 9.81 µM; in the experiment with SNB-19 CNS, 13.7 µM; in the experiment with SR leukemia, 2.13 µM. The TGI in the experiment on CAKI-1 renal worked out at 19.2 µM; with HOP-62 NSCLC it was 25.3 µM; in the experiment on NCI-H23 lung, 14.1 µM; with OVCAR-5 ovarian, 18.7 µM; in the experiment on SF-295 CNS, 20.2 µM; in the experiment on SK-MEL-28 melanoma it was 26 µM. The TGI with SK-OV-3 ovarian turned out to be 26.8 µM; with SN12C renal, 24.4 µM; with SNB-19 CNS, 30 µM; with SR leukemia, 4.69 µM.

Consider `CC(=O)OC1C(O)COC(Oc2c(C)c3c4c(c2O)[C@@H](C)CC[C@@H]4[C@@H](C)C[C@H]3C=C(C)C)C1O` (some centres not stated), for which the GI50 was 16.9 µM in the experiment with CAKI-1 renal; 15.4 µM in the experiment on HOP-62 NSCLC; 17.9 µM with NCI-H23 lung; 23.2 µM in the experiment with OVCAR-5 ovarian; 18.1 µM in the experiment on SF-295 CNS; 22.3 µM with SK-MEL-28 melanoma. Also, the GI50 in the experiment with SK-OV-3 ovarian is 19.6 µM; with SN12C renal, 19.3 µM; in the experiment on SNB-19 CNS, 23.4 µM; in the experiment on SR leukemia, 3.87 µM. Also, the TGI in the experiment on CAKI-1 renal amounted to 32.2 µM; in the experiment on HOP-62 NSCLC, 32.5 µM; with NCI-H23 lung, 37.5 µM; with OVCAR-5 ovarian, 47.9 µM; in the experiment on SF-295 CNS, 35.7 µM; in the experiment on SK-MEL-28 melanoma, 48.2 µM. For the same compound, the TGI with SK-OV-3 ovarian was 39.2 µM; in the experiment with SN12C renal it was 44.5 µM; in the experiment on SNB-19 CNS it was 49.6 µM; in the experiment with SR leukemia it was 19.1 µM.

These data come from PubChem BioAssay (NCI).
